Measured values taken from patent publication US20110173718A1, “HERBICIDE TOLERANT PLANTS” (SYNGENTA CROP PROTECTION, INC., priority 2008, published 2011).

Tests used:
Chlamydomonas HST = target: T1, Chlamydomonas HST (Chlamydomonas reinhardtii, UniProt A1JHN0); assay: HST assay (TLC, MFBQ formed), recombinant Chlamydomonas HST in E. coli membranes; format: biochemical; details: TLC, estimated amount of MFBQ formed, relative to controls
T1 construct: GST (N); made in house; host or cells: E. coli (BL21A1 / BL21DE3), membrane fraction
T1 sequence (A1JHN0 51-370): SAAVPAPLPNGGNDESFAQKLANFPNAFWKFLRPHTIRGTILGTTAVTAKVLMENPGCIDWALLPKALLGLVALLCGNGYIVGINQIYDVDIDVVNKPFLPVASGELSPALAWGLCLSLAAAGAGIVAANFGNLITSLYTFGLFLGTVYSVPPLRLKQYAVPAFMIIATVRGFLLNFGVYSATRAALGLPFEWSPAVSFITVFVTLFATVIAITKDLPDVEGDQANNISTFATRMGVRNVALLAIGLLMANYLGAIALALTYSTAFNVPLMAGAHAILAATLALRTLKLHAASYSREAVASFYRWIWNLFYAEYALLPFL
Procedure: Alternatively, Arabidopsis and Chlamydomonas mature HST coding sequences are cloned as GST N-terminal fusion enzymes and expressed in E. coli.
E. coli. BL21A1 cells expressing mature Arabidopsis or Chlamydonionas HST as a GST N-terminal fusion proteins are grown, harvested, broken and membrane fractions expressing HST produced.
For example, 1 ng of recombinant DNA is used to transform BL21DE3 cells to obtain a plateful of individual colonies. One of these colonies is picked and used to inoculate an overnight culture of 100 ml of Luria Broth (LB) supplemented with 50 ug/ml of kanamycin at final concentration, grown at 37° C. with shaking at 220 rpm. Next morning, 10 mls of the overnight culture is used to inoculate 11 of fresh sterile LB supplemented with 50 ug/ml of kanamycin at final concentration, grown at 37° C. with shaking at 220 rpm until the OD reached 0.6 at 600 nm, induced with the addition of 0.1 mM IPTG and left to induce at 15° C. overnight. The cells are harvested by centrifugation at 4600 rpm for 10 min at 4° C. and the pellet stored at −80° C. […] E. coli cell pellet is then resuspended in 25 ml of 50 mM Tris, pH 7.5 supplemented with Roche EDTA-free protease inhibitor tablet (one tablet in 200 mls of buffer). 10 ml of cells are lysed by sonication on ice. The resultant lysed cells are centrifuged at 3000 g for 10 min to pellet the cell nuclei/debris etc. 10 mls of supernatant is aspirated and centrifuged at 150,000 g for 60 min at 4° C. The pellet containing the membranes is resuspended in 2 ml of the above buffer. These samples are stored as 100 ul aliquots at −80° C., after being diluted with addition of glycerol to 50% v/v.
Prenyltransferase (HST) activities are measured by determining the prenylation rates of [U—^14C]homogentisate using farnesyl diphosphate (FDP) as prenyl donor. ^14C homogentisate is prepared from ^14C tyrosine using L amino acid oxidase and HPPD. For inhibitor testing, compounds are dissolved in dimethylsulfoxide (DMSO). DMSO added at up to 2% v/v has no effect on assays. Control assays contain DMSO at the same concentration as in inhibitor containing assays.
The recombinant Chlamydomonas HST expressed in E. coli membranes is assayed in standard reaction mixtures with 200 μM FDP and 100 μM ^14C-homogentisate (40 dpm/pmol) in 50 mM Tricine-NaOH pH 8.5, 20 mM MgCl2. Assays are started with the addition of enzyme and run for ˜20 min at 28° C.
Recombinant Arabidopsis and Rice HSTs are expressed in insect cells. Assays are run as for Chlamydomonas HST except that assay temperature is 27° C. Assays are stopped with 300 ul of solvent mix (1:2, Chloroform:Methanol) and 100 ul of 0.5% NaCl, agitated/mixed and spun at 13,000 rpm in a benchtop eppendorf centrifuge for 5 minutes. 80 ul of the lower phase extract is loaded onto a TLC plate (silica Gel 60, 20 cm×20 cm) FLA3000 system and run for 35 minutes in dichloromethane. The radioactivity is quantified using a Fuji Phosphoimager and band intensity integrated as quantitative measure of product amount. The bands corresponding to oxidised and reduced 2-methyl-6-farnesyl-1,4-benzoquinol (MFBQ) are identified and the total of the two (oxidised and reduced) band intensities is calculated in order to estimate the total amount of MFBQ product formation. Specific activities of 8 pmol MFBQ min^−1 mg^−1 protein (23 pmol) and 7 pmol MFBQ min^−1 mg^−1 protein (14 pmol) are, for example, estimated for the GST-fusion truncated Arabidopsis HST gene (SEQ ID # 3) expressed in membranes from insect cells 4 days and 5 days after transfection respectively. Similar results are noted from past literature on E. coli expressed Arabidopsis HST. Activity from the insect cell expressed GST-fusion truncated rice HST (SEQ ID# 4) is similar. Expression of the non-truncated HST coding sequences as GST fusions also gives HST activity. […]

[1] = test system: wild-type (WT) Samsun tobacco; assay: Glasshouse spray test, wild-type tobacco; format: in vivo; details: 500 g/ha; 14 DAT; WT control, reps
Procedure: Rooted transgenic T0 plantlets are transferred from agar and potted into 50% peat, 50% John Innes soil no 3 or, for example, MetroMix® 380 soil (Sun Gro Horticulture, Bellevue, Wash.) with slow-release fertilizer in 3 inch round or 4 inch square pots and left regularly watered to establish for 8-12 d in the glass house. Glass house conditions are about 24-27° C. day; 18-21° C. night and approximately a 14 h (or longer in UK summer) photoperiod. Humidity is ˜65% and light levels up to 2000 μmol/m^2 at bench level. Once new tissue emerges and plants they have reached the 2-4 leaf stage some of the clones from each event are sprayed with test chemicals dissolved in water with 0.2-0.25% X-77 surfactant and sprayed from a boom on a suitable track sprayer moving at 2 mph in a DeVries spray chamber with the nozzle about 2 inches from the plant tops. Spray volume is suitably 25 gallons per acre or, for example, […].
Test chemicals are, for example, compound 2.3 at 500 g/ha. At the same time that transgenic plants are sprayed so too are w/t Samsun tobacco plants grown from seed as well as non-transgenic plants regenerated from tissue culture and non-transgenic tissue culture escapes. Damage is assessed versus unsprayed control plants of like size and development.
6 Seed from w/t Samsun tobacco and 8 T1 seed from events B8 and G9 are also planted out in 3 inch pots, grown on for 7 to 12 d and then, as described in the foregoing examples, the plantlets spray tested for resistance to various chemicals and assessed at 14 DAT. Chemicals are formulated in 0.2% X77 and sprayed at a spray volume of 200 l/ha.
Seed of wild-type tobacco plants, C2 tobacco plants and of the T1 progeny of a further Arabidopsis-HST expressing tobacco line, D2 were planted out in 3 inch pots, grown on, sprayed with compounds 1.1, 2.30 and 3.6 at the rates shown in table 5. Percent damage scores were assessed at 7 DAT. Aside from the presumptive non-transgenic segregants the D2 line containing the Arabidopis HST expression construct offered the highest level of tolerance to the two HST herbicides with the Psuedomonas HPPD, C2 line, offering only marginal tolerance under the conditions of this test.
Single copy events amongst the T1 plant lines are identified by their 3:1 segregation ratio (wrt kanamycin and or herbicide) and by quantitative RT-PCR. Seed from the thus selected T1 tobacco (var Samsun) lines are sown in 3 inch diameter pots containing 50% peat, 50% John Innes soil no 3. After growth to the 3 leaf stage, plants are sprayed, as described above, in order to test for herbicide tolerance relative to like-treated non-transgenic tobacco plants.
Control tobacco plants and transgenic T1 plants expressing either the Pseudomonas or the wheat HPPD gene are sprayed at 37, 111, 333 and 1000 g/ha rates of HST inhibitors and, for example, compound 2.3.
Plants are assessed and scored for % damage at 16 DAT.

[2] = test system: Arabidopsis HST transgenic tobacco plants; assay: Glasshouse spray test, Arabidopsis HST transgenic tobacco; format: in vivo; details: 500 g/ha, 14 DAT
Description: For example the Arabidopsis HST SEQ ID # 11 is cloned behind a double 35s CMV promoter sequence and a TMV translational enhancer sequence and in front of the 3′ terminator from the nos gene. This expression cassette is ligated into pMJB1 (described in WO98/20144) and then into pBIN19 and then transformed into Agrobacterium tuniqfaciens strains LBA4404 prior to plant transformation.
For example, the full length Arabidopsis HST seq ID # 11 is fused to the TMV translational enhancer sequence (SEQ ID #33) by overlapping PCR and, at the same time, 5′ XhoI site and a 3′KpnI site are added by PCR. Site-directed mutagenesis is performed to remove an internal XhoI site. The TMV/HPPD fusion is removed from the pBIN19 by digestion with XhoI/KpnI and is replaced by the TMV/HST fusion (SEQ ID #34). The TMV/HST fusion is now cloned behind a double 35s promoter and in front of the 3′ terminator from the nos gene. Again the modified pBIN19 vector (‘pBinAT HST’) is then transformed into Agrobacterium tumefaciens strain LBA4404.
A master plate of Agrobacterium tumefaciens containing the binary vector pBinAT HST (described above) or analogous binary vector comprising a different HST is used to inoculate 10 ml LB containing 100 mg/1 Rifampicin plus 50 mg/1 Kanamycin using a single bacterial colony. This is incubated overnight at 28° C. shaking at 200 rpm. This entire overnight culture is used to inoculate a 50 ml volume of LA (plus antibiotics). Again this is cultured overnight at 28° C. shaking at 200 rpm. The Agrobacterium cells are pelleted by centrifuging at 3000 rpm for 15 minutes then resuspended in MS medium with 30 g/1 sucrose, pH 5.9 to an OD ([…])=0.6. This suspension is dispensed in 25 ml aliquots into petri dishes.
Clonal micro-propagated tobacco shoot cultures are used to excise young (not yet fully expanded) leaves. The mid rib and outer leaf margins are removed and discarded, the remaining lamina is cut into 1 cm squares. These are transferred to the Agrobacterium suspension for 20 minutes. Explants are then removed, dabbed on sterile filter paper to remove excess suspension then transferred to NBM medium (MS medium, 30 g/1 sucrose, 1 mg/1 BAP, 0.1 mg/1 NAA, pH 5.9, solidified with 8 g/1 Plantagar), with the abaxial surface of each explant in contact with the medium. Approximately 7 explants are transferred per plate, which are then sealed then maintained in a lit incubator at 25° C., 16 hour photoperiod for 3 days.
Explants are then transferred to NBM medium containing 100 mg/1 Kanamycin plus antibiotics to prevent further growth of Agrobacterium (200 mg/1 timentin with 250 mg/1 carbenicillin). Further subculture on to this same medium is then performed every 2 weeks.
As shoots start to regenerate from the callusing leaf explants these are removed to Shoot elongation medium (MS medium, 30 g/1 sucrose, 8 g/1 Plantagar, 100 mg/1 Kanamycin, 200 mg/1 timentin, 250 mg/1 carbenicillin, pH 5.9). Stable transgenic plants readily root within 2 weeks. To provide multiple plants per event to ultimately allow more than one herbicide test per transgenic plant all rooting shoots are micropropagated to generate 3 or more rooted clones.
Putative transgenic plants that are rooting and show vigorous shoot growth on the medium incorporating Kanamycin are analysed by PCR using primers that amplified a 500 bp fragment within the Arabidopsis HST transgene.
Rooted transgenic T0 plantlets are transferred from agar and potted into 50% peat, 50% John Innes soil no 3 or, for example, MetroMix® 380 soil (Sun Gro Horticulture, Bellevue, Wash.) with slow-release fertilizer in 3 inch round or 4 inch square pots and left regularly watered to establish for 8-12 d in the glass house. Glass house conditions are about 24-27° C. day; 18-21° C. night and approximately a 14 h (or longer in UK summer) photoperiod. Humidity is ˜65% and light levels up to 2000 μmol/m^2 at bench level. […]

Structure (SMILES)	Chlamydomonas. HST % I at 10 ppm (Chlamydomonas HST)	Chlamydomonas. HST % I at 100 ppm (Chlamydomonas HST)	herbicide % damage [1]	herbicide % damage ([2]; T1 progeny of line B8, reps)	herbicide % damage ([2]; T1 progeny of line G9-2, reps)
O=c1[nH]c2nccnc2c(O)c1-c1c(F)ccc(Br)c1Cl [Compound 2.1]	10%	40%	–	–	–
CCNc1nc(Cl)nc(NC(C)C)n1 [Atrazine, reference compound]	–	–	100%	100%	100%
Nc1nc[nH]n1 [Amitrole, reference compound]	0%	0%	–	–	–
CN1CC(c2c(F)ccc(F)c2Cl)=C(O)c2ncccc21 [Compound 4.1]	0%	0%	–	–	–
O=c1[nH]c2nccnc2c(O)c1-c1ccccc1OC(F)(F)F [Compound 2.6]	5%	20%	–	–	–
O=c1[nH]c2nccnc2c(O)c1-c1c(F)ccc(F)c1Cl [Compound 2.7]	5%	20%	–	–	–
Cc1cc(C)c(-c2c(O)c3nccnc3n(C)c2=O)c(C)c1 [Compound 2.2]	70%	95%	–	–	–
